# Assay results: patent US10023539B2, “Aryl-cyanoguanidine compounds” (Bayer Pharma Aktiengesellschaft, priority 2014, dated 2018)
# Biological target: SMYD2 (Homo sapiens (Human), UniProt Q9NRG4)
# Experiment: Scintillation Proximity Assay (SPA) for detection of SMYD2 enzymatic inhibition
# Assay type: biochemical
# Conditions: methylation of biotinylated p53 Peptide, 3H-SAM, full length SMYD2; read-out: IC50 [mol/l] (SPA Assay)
# Protocol: 1.1 Scintillation Proximity Assay (SPA) for Detection of SMYD2 Enzymatic Inhibition
# The SMYD2 full length enzyme was produced in-house by expression (with an N-terminal 6×His tag) in E. coli and purification by affinity chromatography on a Ni-NTA Sepharose column followed by a size exclusion chromatography step on a Superdex 200 16/60 column (GE Healthcare).
# To this end, 100-fold concentrated compound solutions (in DMSO) were previously prepared by serial dilution (1:3.4) of 2 mM stocks in a clear low volume 384-well source microtiter plate (Greiner Bio-One), from which 50 nl of compound solutions were transferred into a white low volume test microtiter plate from the same supplier. […] The samples were then incubated for 15 min at 22° C. to allow pre-equilibration of the putative enzyme-inhibitor complexes before the start of the methylation reaction, which was initiated by the addition of 2.5 μl 2-fold concentrated solution (in assay buffer) of titrated S-Adenosyl-L-Methionine (3H-SAM, Perkin Elmer, final concentration: 60 nM) and p53 Peptide substrate (final concentration: 1.0 μM). The resulting mixture (5 μl final volume) was shortly centrifuged (2 min., 1500 rpm) and incubated at 22° C. during 30 min. Thereupon the reaction was stopped by adding 3 μl of Streptavidin PS SPA imaging beads (Perkin Elmer, final concentration of 3.12 μg/μl) and “cold” SAM (AK Scientific, 25 μM final concentration) for non-specific binding reduction. Plates containing the stopped reaction were sealed with transparent adhesive foil (Perkin Elmer), centrifuged (2 min., 1500 rpm), and further incubated for—at least—1 h at RT (or overnight at 4° C.) in order to allow the SPA signals to develop. […] IC50 values were calculated by fitting the normalized inhibition data to a 4-parameter logistic equation using the “Screener” analysis software from Genedata.
# SMYD2, sequence (Q9NRG4 whole entry): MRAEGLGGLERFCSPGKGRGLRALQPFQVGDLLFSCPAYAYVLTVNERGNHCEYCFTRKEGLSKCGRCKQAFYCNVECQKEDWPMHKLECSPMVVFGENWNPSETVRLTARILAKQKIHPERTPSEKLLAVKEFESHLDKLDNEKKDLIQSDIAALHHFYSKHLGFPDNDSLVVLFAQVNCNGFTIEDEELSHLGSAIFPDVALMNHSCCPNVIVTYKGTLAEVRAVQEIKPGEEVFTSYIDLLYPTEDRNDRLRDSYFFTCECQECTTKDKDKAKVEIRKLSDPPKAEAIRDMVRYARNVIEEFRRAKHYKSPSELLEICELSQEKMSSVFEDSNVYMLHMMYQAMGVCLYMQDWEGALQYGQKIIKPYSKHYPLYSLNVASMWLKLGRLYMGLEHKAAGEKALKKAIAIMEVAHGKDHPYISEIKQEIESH
row,IC50 [nM],Structure (SMILES)
1,518,"C[C@H](O)C(=O)NC1CN(/C(=N\C#N)Nc2cccc(OC(F)F)c2)N=C1c1ccc(Cl)c(Cl)c1 (mixture of isomers) [Example 1, (2S)—N-[1-{N′-cyano-N-[3-(difluoromethoxy)phenyl]carbamimidoyl}-3-(3,4-dichlorophenyl)-4,5-dihydro-1H-pyrazol-4-yl]-2-hydroxypropanamide]"
2,83.3,"CN(C(=O)CO)C1CN(/C(=N\C#N)Nc2cccc(OC(F)F)c2)N=C1c1ccc(Cl)c(Cl)c1 (racemic) [Example 2, Rac-N-[1-{N′-cyano-N-[3-(difluoromethoxy)phenyl]carbamimidoyl}-3-(3,4-dichlorophenyl)-4,5-dihydro-1H-pyrazol-4-yl]-2-hydroxy-N-methylacetamide]"
3,138,"CCN(C(=O)CO)C1CN(/C(=N\C#N)Nc2cccc(OC(F)(F)F)c2F)N=C1c1ccc(Cl)c(Cl)c1 (racemic) [Example 12, Rac-N-[1-{N′-cyano-N-[2-fluoro-3-(trifluoromethoxy)phenyl]carbamimidoyl}-3-(3,4-dichlorophenyl)-4,5-dihydro-1H-pyrazol-4-yl]-N-ethyl-2-hydroxyacetamide]"
4,147,"CCN(C(=O)CO)C1CN(/C(=N\C#N)Nc2ccc(F)c(OC(F)(F)F)c2)N=C1c1ccc(Cl)c(Cl)c1 (racemic) [Example 14, Rac-N-[1-{N′-cyano-N-[4-fluoro-3-(trifluoromethoxy)phenyl]carbamimidoyl}-3-(3,4-dichlorophenyl)-4,5-dihydro-1H-pyrazol-4-yl]-N-ethyl-2-hydroxyacetamide]"
5,59.5,"CCN(C(=O)CN)C1CN(/C(=N\C#N)Nc2cccc(OCCN(C)C)c2)N=C1c1ccc(Cl)c(Cl)c1 (racemic) [Example 17, Rac-N-[1-(N′-cyano-N-{3-[2-(dimethylamino)ethoxy]phenyl}carbamimidoyl)-3-(3,4-dichlorophenyl)-4,5-dihydro-1H-pyrazol-4-yl]-N-ethylglycinamide]"
6,64.8,"CCN(C(=O)CO)C1CN(/C(=N\C#N)Nc2ccc(F)c(OC(F)F)c2)N=C1c1ccc(Cl)c(Cl)c1 (racemic) [Example 22, Rac-N-[1-{N′-cyano-N-[3-(difluoromethoxy)-4-fluorophenyl]carbamimidoyl}-3-(3,4-dichlorophenyl)-4,5-dihydro-1H-pyrazol-4-yl]-N-ethyl-2-hydroxyacetamide]"
7,67.4,"CCN(C(=O)CO)C1CN(/C(=N\C#N)Nc2cccc(OC(F)F)c2F)N=C1c1ccc(Cl)c(Cl)c1 (racemic) [Example 23, Rac-N-[1-{N′-cyano-N-[3-(difluoromethoxy)-2-fluorophenyl]carbamimidoyl}-3-(3,4-dichlorophenyl)-4,5-dihydro-1H-pyrazol-4-yl]-N-ethyl-2-hydroxyacetamide]"
8,63.1,"CCN(C(=O)CO)C1CN(/C(=N\C#N)Nc2cc(F)cc(OC(F)F)c2)N=C1c1ccc(Cl)c(Cl)c1 (racemic) [Example 24, Rac-N-[1-{N′-cyano-N-[3-(difluoromethoxy)-5-fluorophenyl]carbamimidoyl}-3-(3,4-dichlorophenyl)-4,5-dihydro-1H-pyrazol-4-yl]-N-ethyl-2-hydroxyacetamide]"
9,30.6,"CCN(C(=O)CO)C1CN(/C(=N\C#N)Nc2cc(OC(F)(F)F)ccc2OC)N=C1c1ccc(Cl)c(Cl)c1 (racemic) [Example 26, Rac-N-[1-{N′-cyano-N-[2-methoxy-5-(trifluoromethoxy)phenyl]carbamimidoyl}-3-(3,4-dichlorophenyl)-4,5-dihydro-1H-pyrazol-4-yl]-N-ethyl-2-hydroxyacetamide]"
10,140,"CCN(C(=O)CO)C1CN(/C(=N\C#N)Nc2cc(C(F)(F)F)ccc2OC(F)(F)F)N=C1c1ccc(Cl)c(Cl)c1 (racemic) [Example 28, Rac-N-[1-{N′-cyano-N-[2-(trifluoromethoxy)-5-(trifluoromethyl)phenyl]carbamimidoyl}-3-(3,4-dichlorophenyl)-4,5-dihydro-1H-pyrazol-4-yl]-N-ethyl-2-hydroxyacetamide]"
11,15.8,"CCN(C(=O)CO)C1CN(/C(=N\C#N)Nc2cc(C(F)(F)F)ccc2OCCN2CCCC2)N=C1c1ccc(Cl)c(Cl)c1 (racemic) [Example 30, Rac-N-[r-(N′-cyano-N-[2-[2-(pyrrolidin-1-yl)ethoxy]-5-(trifluormethyl)phenyl]carbamimidoyl)-3-(3,4-dichlorophenyl)-4,5-dihydro-1H-pyrazol-4-yl]-N-ethyl-2-hydroxyacetamide]"
12,157,"CCN(C(=O)CO)C1CN(/C(=N\C#N)Nc2cccc(OC(F)(F)F)c2)N=C1c1ccc(Cl)c(F)c1 (racemic) [Example 35, Rac-N-[3-(4-chloro-3-fluorophenyl)-1-{N′-cyano-N-[3-(trifluoromethoxy)phenyl]-carbamimidoyl}-4,5-dihydro-1H-pyrazol-4-yl]-N-ethyl-2-hydroxyacetamide]"
13,44.1,"CCN(C(=O)CO)C1CN(/C(=N\C#N)Nc2ccc(Cl)c(OC(F)F)c2)N=C1c1ccc(Cl)c(Cl)c1 (single isomer, unassigned) [Example 11.1, N-[1-{N-[4-chloro-3-(difluoromethoxy)phenyl]-N′-cyanocarbamimidoyl}-3-(3,4-dichlorophenyl)-4,5-dihydro-1H-pyrazol-4-yl]-N-ethyl-2-hydroxyacetamide]"
14,2980,"CCN(C(=O)CO)C1CN(/C(=N\C#N)Nc2ccc(Cl)c(OC(F)F)c2)N=C1c1ccc(Cl)c(Cl)c1 (single isomer, unassigned) [Example 11.2, N-[1-{N-[4-chloro-3-(difluoromethoxy)phenyl]-N′-cyanocarbamimidoyl}-3-(3,4-dichlorophenyl)-4,5-dihydro-1H-pyrazol-4-yl]-N-ethyl-2-hydroxyacetamide]"
15,2660,"CCN(C(=O)CO)C1CN(/C(=N\C#N)Nc2cccc(OC(F)(F)F)c2F)N=C1c1ccc(Cl)c(Cl)c1 (single isomer, unassigned) [Example 12.1, N-[1-{N′-cyano-N-[2-fluoro-3-(trifluoromethoxy)phenyl]carbamimidoyl}-3-(3,4-dichlorophenyl)-4,5-dihydro-1H-pyrazol-4-yl]-N-ethyl-2-hydroxyacetamide]"
16,54.1,"CCN(C(=O)CO)C1CN(/C(=N\C#N)Nc2cccc(OC(F)(F)F)c2F)N=C1c1ccc(Cl)c(Cl)c1 (single isomer, unassigned) [Example 12.2, N-[1-{N′-cyano-N-[2-fluoro-3-(trifluoromethoxy)phenyl]carbamimidoyl}-3-(3,4-dichlorophenyl)-4,5-dihydro-1H-pyrazol-4-yl]-N-ethyl-2-hydroxyacetamide]"
17,2510,"CCN(C(=O)CO)C1CN(/C(=N\C#N)Nc2cc(F)cc(OC(F)F)c2)N=C1c1ccc(Cl)c(Cl)c1 (single isomer, unassigned) [Example 24.1, N-[1-{N′-cyano-N-[3-(difluoromethoxy)-5-fluorophenyl]carbamimidoyl}-3-(3,4-dichlorophenyl)-4,5-dihydro-1H-pyrazol-4-yl]-N-ethyl-2-hydroxyacetamide]"
18,19.2,"CCN(C(=O)CO)C1CN(/C(=N\C#N)Nc2cc(F)cc(OC(F)F)c2)N=C1c1ccc(Cl)c(Cl)c1 (single isomer, unassigned) [Example 24.2, N-[1-{N′-cyano-N-[3-(difluoromethoxy)-5-fluorophenyl]carbamimidoyl}-3-(3,4-dichlorophenyl)-4,5-dihydro-1H-pyrazol-4-yl]-N-ethyl-2-hydroxyacetamide]"
19,15400,"CCN(C(=O)[C@H](C)N)C1CN(/C(=N\C#N)Nc2cccc(OC(F)F)c2)N=C1c1ccc(Cl)c(C)c1 (single isomer, unassigned) [Example 34.1, N-[3-(4-chloro-3-methylphenyl)-1-{N′-cyano-N-[3-(difluoromethoxy)phenyl]carbamimidoyl}-4,5-dihydro-1H-pyrazol-4-yl]-N-ethyl-L-alaninamide]"
20,488,"CCN(C(=O)[C@H](C)N)C1CN(/C(=N\C#N)Nc2cccc(OC(F)F)c2)N=C1c1ccc(Cl)c(C)c1 (single isomer, unassigned) [Example 34.2, N-[3-(4-chloro-3-methylphenyl)-1-{N′-cyano-N-[3-(difluoromethoxy)phenyl]carbamimidoyl}-4,5-dihydro-1H-pyrazol-4-yl]-N-ethyl-L-alaninamide]"
21,2400,"CCN(C(=O)[C@H](N)CC(C)C)C1CN(/C(=N\C#N)Nc2cccc(OC(F)(F)F)c2)N=C1c1ccc(Cl)c(Cl)c1 (stereo partly drawn) [Example 39, N-[1-{N′-cyano-N-[3-(trifluoromethoxy)phenyl]carbamimidoyl}-3-(3,4-dichlorophenyl)-4,5-dihydro-1H-pyrazol-4-yl]-N-ethyl-D-leucinamide]"
22,418,"CCN(C(=O)[C@H](N)C(C)C)C1CN(/C(=N\C#N)Nc2cccc(OC(F)(F)F)c2F)N=C1c1ccc(Cl)c(Cl)c1 (stereo partly drawn) [Example 40, N-[1-{N′-Cyano-N-[2-fluoro-3-(trifluoromethoxy)phenyl]carbamimidoyl}-3-(3,4-dichlorophenyl)-4,5-dihydro-1H-pyrazol-4-yl]-N-ethyl-D-valinamide]"
